Laboratory results taken from patent US20030073654A1, “Stabilized transient gene expression” (Genespan Corporation, priority 1996, published 2003).
Values joined by “and” are separate entries in the source; they are usually repeats but may differ in a detail not shown here. Identical values can stand only once.

Assays:
SW480 cells [1] = test: Assay for cytotoxicity (trypan blue viability, 8 day static culture); assay type: cell-based, human; conditions: Table 13, protocol of Example 10
Description: 1. […] However, it should be understood that various types of cells vary in their sensitivity to different chemical compounds. Thus, while SW480 cells may be used as a convenient tool for determining biocompatible concentrations of the chemical compounds, it may be necessary to empirically adjust the concentrations determined with SW480 cells in order to optimize biocompatibility with other types of cells.
A number of chemical compounds were tested in 6-well plates according to the protocol described in Example 1 to determine the relationship between their cytotoxicity and their ability to promote the uptake and expression of foreign genes in SW480 cells. Unless otherwise noted, except for the control, all plates contained 4 mM L-glutamine as well as gentamicin to retard bacterial growth.
Cytotoxicity assays were performed as follows. SW480 cells (approximately 1×10^6 cells per well) were plated in 1 ml of RPMI in 6-well culture dishes at day zero in the presence of the chemical compound whose cytotoxicity was being tested. Twenty-four hours after seeding the wells, the RPMI medium was removed, and liposomes containing foreign DNA were added to the culture in 1 ml of OPTI-MEM medium, as described in Example 1. The transfection medium also contained the chemical compounds whose cytotoxicity was being tested. Control plates were included that were identical to the test plates, except that the test compounds were not present in the culture medium. Test and control cultures were grown under “static” conditions, i.e., the plates were not shaken, rotated, or otherwise agitated. Each day for a total of 8 days, the cells from one test well and one control well were harvested and viability assessed by staining with trypan blue. […] The chondroitin sulfate used here was as in Example 2.

SW480 cells [2] = test: Influence of polysaccharide size/type on transient expression (protocol of plate #6, polysaccharide substituted for chondroitin sulfate); assay type: cell-based, human; conditions: for FACTOR G / FACTOR K / FACTOR X / Total β-gal (ng) from 2 × 10^4 Cells in 14 Days: Table 13; for effectiveness in enhancing transient expression: running text of Example 10
Description: A 15 plate experiment was conducted in which the chemical compounds indicated in Table 9 were added to the culture medium of SW480 cells that were transfected in 6-well plates as detailed in Example 1. […] The chondroitin sulfate used for these experiments was as in Example 2. The most efficacious formulations, in order of their effectiveness, were those used in plates 6, 3, 13 and 14. […] The following experiments were conducted to determine the effects of polysaccharide size on their effectiveness in enhancing transient expression. […] The chondroitin sulfate used for these comparisons was obtained either from Biorelease, or was prepared by treating large (>20 kDa) chondroitin sulfate (Type A) with alkali, then acid. The size of the non-purchased preparations was determined by electrophoretic comparison with Biorelease 4 kDa chondroitin sulfate using PhastSystem gels in accord with the manufacturer's instructions (Pharmacia). The results are shown in Table 11, in which the ranges observed for X and […] in the four trials are shown in parentheses below the averages. […] Table 12 also presents the results of the Limulus amebocyte lysate (LAL) endotoxin assay, expressed as endotoxin units per ml (Eu/ml), which was performed on all media used before, during and after transfection, but before adding serum. This assay provides a quantitative measure for Gram-negative bacterial endotoxin in aqueous solutions. […] The LAL results in Table 12 are those for the post-transfection media, assayed prior to adding serum. All solutions used for these experiments were prepared in a hood using standard aseptic procedures.

[3] = system: SW480 P3 (ATCC #CCL228) human colon carcinoma cells; test: Screening assay for enhancement of transient expression (β-galactosidase gene, liposomal transfection, 6-well plates); assay type: cell-based; conditions: for G Factor (G14): Table 1, values without asterisk, days 4-14 after transfection; for X Factor / K Factor: Table 1; for X Factor: cumulative β-galactosidase vs control, first four days after transfection, compound at the mM given in the table; for K Factor: ratio of first order rate constants of change in expression, control vs compound
Text: These parameters are called the “X” factor, the “G” factor, and the “K” factor. [formula]
This factor reflects the extent to which a chemical compound added to a transfected cell enhances stabilizes transient expression for the first four days following transfection. […] For example, if expression is doubled in the presence of a compound, […]. […] X may be calculated similarly when the agent in question is a mixture of more than one chemical compound.
Cumulative protein expression, i.e., the values for “A” and “C”, is measured by summing the values measured daily in aliquots of the cultured cells.
2. G factors. G factors differ from the X factor only with respect to the time period evaluated. For calculating a G factor, the amount of protein expressed is measured from days 4-7 or days 4-14, where day 0 is the day on which the foreign DNA is added to the cells. The subscripts denote which of the two time periods provided the basis for measurement. […] As for the X factor, [formula]
3. K factor. The K factor is the ratio of the rate constants for the change in the foreign DNA expression in control transfected cells and in cells exposed to a chemical compound of the subject invention. K is determined according to the following equation: [formula]
wherein “k(DNA)” is the first order rate constant for the change in concentration of the protein expressed from the transgenic DNA, which is expressing protein as a function of time, i.e., [formula]
Values for k(DNA) are derived by using a computer program that plots the log of the foreign protein concentration against time, using the results of transgenic protein measurements that begin about 24 hours after the foreign DNA has been added to the cell. […] However, the program calculates a “best fit” line for each data set, and determines the slope of that portion of the resulting line that corresponds to the period during which protein production is changing. […] Thus, the slope is calculated during this period of decline to provide values for k(DNA) and K that can be compared for the purpose of comparing the efficacy of different chemical compounds.
SW480 P3 (ATCC #CCL228) human colon carcinoma cells (typically, 1×10^6 cells) were plated in the wells of a 6-well tissue culture plate. The number of wells plated reflected the number of days post-transfection during which the experiment would proceed. Each well contained 1 ml of complete media from a 30 ml stock solution containing: 26.4 ml RPMI tissue culture medium, 4 mM L-glutamine, 3.0 ml fetal bovine serum, and 10 μg/ml gentamicin. Cells were cultured at 37° C. in a CO2 incubator with 10% CO2 for 24 hours after being plated, during which time the cells adhered to the plates.
After the 24 hour pre-incubation step, the transfection step was carried out by removing the RPMI and adding 900 μL OPTI-MEM® (Gibco) medium containing 2 μg of VR1412 DNA (Vical, Inc., San Diego, Calif.), which expresses the bacterial β-galactosidase gene under the control of a cytomegalovirus promoter, and 8 μg of a mixture of cationic lipid (1,2-dimyristyloxyproply-3-dimethyl-hydroxyethyl ammonium bromide (e.g., “DMRIE/DOPE”) mixed in equimolar proportions with dioleoylphosphatidylethanolamine) to yield a lipid:DNA molar ratio of 0.99:1. It should be noted that typical transient transfection protocols employ 10 μg DNA per 10^6 cells, but the protocol described here uses less DNA in order to reduce toxicity to the cells. The plates were then incubated for 4 hours at 37° C.
After the 4 hour incubation step, 100 μl of heat deactivated fetal bovine serum (to stop transfection), plus 12.0 μl of 50 mg/ml gentamicin were added to each well.

[4] = pH of aqueous solutions of the compounds; assay type: physicochemical; conditions: stock solutions prepared in culture media diluted with deionized water
Description: The pH values shown in Table 1 were determined in aqueous solutions made by diluting stock solutions prepared in culture media with deionized water.

| Compound | G Factor (G14) [3] | X Factor [3] | pH (H20) [4] | K Factor [3] | also measured |
| --- | --- | --- | --- | --- | --- |
| CC(=O)N[C@H]1C(O)O[C@H](COS(=O)(=O)O)[C@H](O)[C@@H]1O[C@@H]1OC(C(=O)O)=C[C@H](O)[C@H]1O (stereo partly drawn) [Chondro ΔDi-6S] | – | – | – | – | Cytotoxic (SW480 cells [1]): No; FACTOR G (SW480 cells [2]): 39.0; FACTOR K (SW480 cells [2]): 1.3; FACTOR X (SW480 cells [2]): −32.7; Total β-gal (ng) from 2 × 10^4 Cells in 14 Days (SW480 cells [2]): 932.2 ng; effectiveness in enhancing transient expression (SW480 cells [2]): better results than the controls |
| O=C(O)CCC(=O)C(=O)O [α-KE[…]] | 53 | 7.28 | 3.75 | – | – |
| O=C(O)[C@@H]1CCCN1 [PROLINE] | 21 | −22 | 7.71 | – | – |
| O=C(O)CCCC(=O)O [GLUTARIC ACID] | −77 | 22 | 3.85 | – | – |
| Nc1ccc(C(=O)O)cc1 [4-AMINO-BENZOIC ACID] | −12 | 52, 52 | 7.67 | 1, 1 | G Factor (G7) ([3]; Table 1, values marked with asterisk, days 4-7 after transfection): 96 |
| C[C@H](N)C(=O)O [α-ALANINE] | 35 | 31 | 7.27 | – | – |
| CCOC(=O)CC[C@H](NCc1ccc(N)cc1)C(=O)OCC [N-(4-AMINOBENZYL)-L-GLUTAMIC DIETHYLESTER] | 8 | −35 | 6.44 | – | – |
| CC(C)C[C@H](N)C(=O)O [LEUCINE] | 32 | −13 | 7.88 | – | – |
| CSCC[C@H](N)C(=O)O [METHIONINE] | 36 | 2 | 7.41 | 0 | – |
| CC(=O)N[C@H]1C(O)O[C@H](CO)[C@H](OS(=O)(=O)O)[C@@H]1O[C@@H]1OC(C(=O)O)=C[C@H](O)[C@H]1O (stereo partly drawn) [Chondro ΔDi-4S] | – | – | – | – | Cytotoxic (SW480 cells [1]): Yes; Cytotoxic (SW480 cells [1]; listed as disaccharide units derived from Type A): cytotoxic; FACTOR G (SW480 cells [2]): 40.1; FACTOR K (SW480 cells [2]): 0.4; FACTOR X (SW480 cells [2]): −28.2; Total β-gal (ng) from 2 × 10^4 Cells in 14 Days (SW480 cells [2]): 184.7 ng |
| O=C(O)c1ccccc1 [BENZOIC ACID] | 28 | −3.1 | 4.21 | 1 | – |
| O=S(=O)(O)CC(O)CN(CCO)CCO (stereo not drawn) [′3-[BIS(2HYDROXYETHYL AMINO)]-2-HYDROXYL-′1-PROPANE SULFONIC ACID] | −10 | −55 | 6.81 | – | – |
| N[C@@H](CO)C(=O)O [SERINE] | 104 | 43 | 7.4 | 1 | – |
| Cn1cncc1C[C@H](N)C(=O)O [3-METHYL-L-HISTIDINE] | 55 | −15 | 7.39 | – | – |
| N[C@@H](CCC(=O)O)C(=O)O [GLUTAMIC ACID] | – | – | 4.2 | 2 | – |
| NCCC(=O)N[C@@H](Cc1cnc[nH]1)C(=O)O [CARNOSINE] | 35 | −8 | 8.32 | – | – |
| N[C@@H](Cc1ccccc1)C(=O)O [PHENYLALANINE] | 53 | −12 | 6.97 | 3 | – |
| CCOC(=O)CCCC(C)=O [ETHYL 4-ACETYLBUTYRATE] | 58 | 51 | 5.98 | 1 | – |
| CNCC(O)c1ccc(O)c(O)c1 (stereo not drawn) [ADRENALINE] | 68 | 49 | 10.29 | – | pH (H20) ([4]; listed as adrenaline): ~10 |
| O=S(=O)(O)CCN(CCO)CCO [BES] | – | 77 and 57 | 6.64 | 1, 1 | – |
| N[C@@H](Cc1ccc(O)cc1)C(=O)O [TYROSINE] | 52 | 36 | 7.88 | 2 | – |
| NCC(=O)O [GLYCINE] | 40 | −.34 | 7.27 | 2 | – |
| Nc1nc2ncc(CNc3ccc(C(=O)N[C@@H](CCC(=O)O)C(=O)O)cc3)nc2c(=O)[nH]1 [FOLIC ACID] | 24 | −1.4 | 6 | – | – |
| O=C[C@@H](O)[C@@H](O)[C@H](O)[C@H](O)CO [Mannose] | – | – | – | – | Cytotoxic (SW480 cells [1]): No; FACTOR G (SW480 cells [2]): 23.5; FACTOR K (SW480 cells [2]): 1.0; FACTOR X (SW480 cells [2]): −23.6; Total β-gal (ng) from 2 × 10^4 Cells in 14 Days (SW480 cells [2]): 730.4 ng; effectiveness in enhancing transient expression (SW480 cells [2]): effective in enhancing transient expression |
| NC(=O)SC[C@H](N)C(=O)O [S-CARBAMYL-L-CYSTEINE] | −74 | −76 | 6.52 | – | – |
